Experimental data reported in paper PMC9629493, “Crystal structure of DNA polymerase I from Thermus phage G20c” (Acta Crystallographica. Section D, Structural Biology, 2022).

Assays:
ExnV1 [1] = molecular target: T1, ExnV1 (uncultured virus, UniProt Z9YD31SC24); experiment: X-ray crystal structure, […] A; format: binding; conditions: TMP and MgCl2 added before concentration; 5 mM TMP, 10 mM MgCl2 in cryo-solution; 100 mM Bicine pH 9.3; exonuclease active site
T1 construct: full 314-residue 3'-5' exonuclease domain protein, N-terminal His6 tag (pJOE5751.1, pLEI447.1), E. coli JM109, about 36 kDa, no oligomerization

ExnV1 [2] = molecular target: T1, ExnV1; experiment: differential scanning fluorimetry; format: binding; conditions: with MgCl2

## Cc1cn([C@H]2C[C@H](O)[C@@H](COP(=O)(O)O)O2)c(=O)[nH]c1=O [thymidine monophosphate]
ExnV1 [1]
  X-ray crystal structure, 2.19 A: the second O atom of the phosphate group of the substrate nucleotide
ExnV1 [2]
  thermal stabilization: Differential scanning fluorimetry showed that ExnV1 was stabilized by thymidine monophosphate (TMP) and MgCl2
